Results as given in paper PMC11347161, “Sequence diversity of apidaecin-like peptides arresting the terminating ribosome” (Nucleic Acids Research, 2024).
≈ marks a conversion by molar mass, not a printed value. Residues, ends and D or L forms follow the SMILES beside them. No end group written: not given here. *: point of attachment. Orn(α-tetramethylguanidino) = CN(C)C(=N[C@@H](CCCN)C(=O)*)N(C)C

Tested on: E. coli, BL21 cells
Assay type: cell-based
Conditions: for MIC values relative to wt Api: E. coli BL21, peptides from depletion selection; for MIC, TSB / MIC, LB / MIC, RPMI/Serum: E. coli BL21, broth microdilution, conducted in triplicate; for MIC, TSB: 33% TSB medium; for MIC, LB: LB medium; for MIC, RPMI/Serum: RPMI/Serum medium (RPMI-1640:MHB:FBS = 100:5:20)
Description: The E. coli strain CA244 (lacZ125(Am), e14-, trpA49(Am), relA1, spoT1) was obtained from Escherichia coli Genetic Stock Center. The E. coli BL21(DE3) electrocompetent cells were from Sigma. The following media and components were implemented for bacteria growth: lysogeny broth (LB), minimal M9 medium, Tryptic Soy Broth (TSB), Roswell Park Memorial Institute medium 1640 (RPMI-1640), Mueller Hinton Broth (MHB), Fetal Bovine Serum (FBS). For various experiments E. coli cells were grown either in LB, in 33% TSB ([21]), in M9 medium supplemented with 1% Glycerol, 1 mM MgSO4, 0.1 mM CaCl2 and 10 μg/ml thiamine, or in RPMI/Serum (RPMI-1640:MHB:FBS = 100:5:20) ([23]).
The minimal inhibitory concentration (MIC) test was performed using the broth microdilution method, adapted from the previously described procedure ([28]). The MIC tests were conducted in triplicate either in LB, 33% TSB or RPMI/Serum media.
In order to quantitatively assess the antimicrobial activity of the synthesized peptides identified by both, the negative and positive selection strategies, we determined their minimal inhibitory concentrations (MICs) for the E. coli BL21 cells in three different media: LB, as a standard laboratory medium, 33% TSB, as a medium in which PrAMPs show increased antibacterial properties ([21]), and in the more therapeutically relevant RPMI/serum media ([23]) (Table 1). […] It appears, therefore, that the positive selection strategy is more prone to identifying biologically active peptides in comparison with the negative selection approaches. Furthermore, it became apparent that some multiple substitutions can even improve the antibacterial properties of the Api-like peptides.

| Compound | MIC values relative to wt Api | MIC, TSB [µM] | MIC, LB [µM] | MIC, RPMI/Serum [µM] |
| --- | --- | --- | --- | --- |
| CC[C@H](C)[C@H](NC(=O)[C@H](Cc1ccc(O)cc1)NC(=O)[C@@H](NC(=O)[C@H](CCCNC(=N)N)NC(=O)[C@H](CCCNC(=N)N)NC(=O)[C@H](CC(N)=O)NC(=O)[C@H](CC(N)=O)NC(=O)[C@H](CCCN)N=C(N(C)C)N(C)C)C(C)C)C(=O)N1CCC[C@H]1C(=O)N[C@@H](CC(N)=O)C(=O)N1CCC[C@H]1C(=O)N[C@@H](CCCNC(=N)N)C(=O)N1CCC[C@H]1C(=O)N1CCC[C@H]1C(=O)N[C@@H](Cc1c[nH]cn1)C(=O)N1CCC[C@H]1C(=O)N[C@@H](CCCNC(=N)N)C(=O)N[C@@H](CC(C)C)C(=O)O [Peptide R5N10] ({Orn(α-tetramethylguanidino)}-NNRRVYIPNPRPPHPRL-OH; C-terminus assumed) | comparable to those of wt Api | 8 (≈ 18.5 µg/mL) | 32 (≈ 73.9 µg/mL) | 1 (≈ 2.31 µg/mL) |
| CC[C@H](C)[C@H](NC(=O)[C@H](Cc1ccc(O)cc1)NC(=O)[C@@H](NC(=O)[C@H](CCCNC(=N)N)NC(=O)[C@H](CCCNC(=N)N)NC(=O)[C@H](CC(N)=O)NC(=O)[C@H](CC(N)=O)NC(=O)[C@H](CCCN)N=C(N(C)C)N(C)C)C(C)C)C(=O)N1CCC[C@H]1C(=O)N[C@@H](CCC(N)=O)C(=O)N1CCC[C@H]1C(=O)N[C@@H](CCCNC(=N)N)C(=O)N[C@@H](CC(N)=O)C(=O)N1CCC[C@H]1C(=O)N[C@@H](Cc1c[nH]cn1)C(=O)N[C@@H](CC(C)C)C(=O)N[C@@H](CCCNC(=N)N)C(=O)N[C@@H](CC(C)C)C(=O)O [Peptide R5N13L16] ({Orn(α-tetramethylguanidino)}-NNRRVYIPQPRNPHLRL-OH; C-terminus assumed) | – | >64 | >64 | >64 |
| CC(C)C[C@H](NC(=O)[C@H](CCCNC(=N)N)NC(=O)[C@@H]1CCCN1C(=O)[C@H](Cc1c[nH]c2ccccc12)NC(=O)[C@@H]1CCCN1C(=O)[C@@H]1CCCN1C(=O)[C@H](CCCNC(=N)N)NC(=O)[C@@H]1CCCN1C(=O)[C@H](CCC(N)=O)NC(=O)[C@@H]1CCCN1C(=O)[C@H](CC(=O)O)NC(=O)[C@H](CC(N)=O)NC(=O)[C@@H](NC(=O)[C@H](CCCNC(=N)N)NC(=O)[C@H](CCCNC(=N)N)NC(=O)[C@H](CC(N)=O)NC(=O)[C@H](CC(N)=O)NC(=O)[C@H](CCCN)N=C(N(C)C)N(C)C)[C@@H](C)O)C(=O)O [Peptide R5T6N7D8W15] ({Orn(α-tetramethylguanidino)}-NNRRTNDPQPRPPWPRL-OH; C-terminus assumed) | – | >64 | >64 | >64 |
| CC[C@H](C)[C@H](NC(=O)[C@H](Cc1ccc(O)cc1)NC(=O)[C@H](CCCNC(=N)N)NC(=O)[C@@H]1CCCN1C(=O)[C@H](CCCNC(=N)N)NC(=O)[C@H](CC(N)=O)NC(=O)[C@H](CC(N)=O)NC(=O)[C@H](CCCN)N=C(N(C)C)N(C)C)C(=O)N1CCC[C@H]1C(=O)N[C@@H](C)C(=O)N1CCC[C@H]1C(=O)N[C@@H](CCCNC(=N)N)C(=O)N1CCC[C@H]1C(=O)N1CCC[C@H]1C(=O)N[C@@H](Cc1c[nH]cn1)C(=O)N1CCC[C@H]1C(=O)N[C@@H](CCCNC(=N)N)C(=O)N[C@@H](CC(C)C)C(=O)O [Peptide R6A10] ({Orn(α-tetramethylguanidino)}-NNRPRYIPAPRPPHPRL-OH; C-terminus assumed) | comparable to those of wt Api | 0.5 (≈ 1.13 µg/mL) | 4 (≈ 9.05 µg/mL) | 0.0625 (≈ 0.141 µg/mL) |
| CC[C@H](C)[C@H](NC(=O)[C@H](Cc1ccc(O)cc1)NC(=O)[C@@H](NC(=O)[C@H](Cc1c[nH]c2ccccc12)NC(=O)[C@H](CCCNC(=N)N)NC(=O)[C@H](CC(N)=O)NC(=O)[C@H](CC(N)=O)NC(=O)[C@H](CCCN)N=C(N(C)C)N(C)C)C(C)C)C(=O)N[C@@H](CC(N)=O)C(=O)N[C@H](C(=O)N1CCC[C@H]1C(=O)N[C@@H](CCCNC(=N)N)C(=O)N[C@@H](CO)C(=O)N1CCC[C@H]1C(=O)N[C@@H](Cc1c[nH]cn1)C(=O)N1CCC[C@H]1C(=O)N[C@@H](CCCNC(=N)N)C(=O)N[C@@H](CC(C)C)C(=O)O)[C@@H](C)O [Peptide W5N9T10S13] ({Orn(α-tetramethylguanidino)}-NNRWVYINTPRSPHPRL-OH; C-terminus assumed) | – | >64 | >64 | >64 |
| GKNRPVYIYQPKPPIPRL [Peptide K2Y9K12I15] | – | >64 | >64 | >64 |
| GNNRPGYDRQPRPPHPRL [Peptide G6D8R9] | – | 8 | 16 | 4 |
| GNNRPGYIPPPRPPHPRL [Peptide G6P10] | – | 0.5 | 8 | 4 |
| GNNRPGYQPKPRPPHPRL [Peptide G6Q8K10] | – | 0.5 | 32 | 16 |
| GNNRPVCAPQPAWPTGRL [C7A8A12W13T15G16] | – | >64 | >64 | >64 |
| GNNRPVECPQPRPRVPRL [Peptide E7C8R14V15] | – | >64 | >64 | >64 |
| GNNRPVYAYQPRPPHPRT [Peptide A8Y9T18] | – | 4 | 32 | 8 |
| GNNRPVYIPKPPTPHPRL [Peptide K10P12T13] | – | 1 | 64 | 8 |
| GNNRPVYIPKPRPPYPRK [Peptide K10Y15K18] | – | 2 | 8 | 2 |
| GNNRPVYIPQPRPPHPRL [Api Ib, Apidaecin 1b, reference compound] | – | 0.5 | 16 | 4 |
| GNRRPMYIPRPRPPHPRE [Peptide R3M6R10E18] | – | 8 | >64 | 16 |
| GNRRPVYIPVPRPPYPRL [Peptide R3V10Y15] | – | 2 | 8 | 2 |
| GRNRPVYIPKPRPPHPRL [Peptide R2K10] | – | 0.25 | 2 | 0.5 |
| GYNRPAYIPRPRPPHPRR [Peptide Y2A6R10R18] | – | 1 | 4 | 0.5 |
| SVMRPVYKPQPRPPHPRL [Peptide S1V2M3K8] | – | 0.5 | 16 | 4 |
| TNARPVNAPQPRPPHPRL [Peptide T1A3N7A8] | – | 8 | 64 | 16 |
